{"source": "patent US20050043239A1", "about": "“Methods of inhibiting immune responses stimulated by an endogenous factor” (priority 2003, published 2005)", "molecules": {"B1": {"name": "complement factor C5a (protein, UniProt P01031 678-751, looked up)", "C5a anaphylatoxin": "TLQKKIEEIAAKYKHSVVKKCCYDGACVNNDETCEQRAARISLGPRCIKAFTECCVVASQLRANISHKDMQLGR", "modifications": "C5a anaphylatoxin", "notes": "host-derived chemoattractant"}}, "key": {"[1]": {"test_system": "Listeria monocytogenes", "assay": "Clearance of systemic Listeria monocytogenes infection", "type": "in vivo", "conditions": "for Log colony count/gm spleen tissue in dexamethasone group (2 mg/kg): 72 hours post-infection, Lewis rats", "procedure": "Two separate bacterial clearance studies were conducted. […] Colony counts (CFU) per gram of spleen tissues were determined at necropsy, 72 hours post-infection and expressed as the log of the colony count (e.g., 100000 CFU=log 5) per gram of tissue. Colony count measurements provide an indication of the extent of phagocytosis of bacteria by splenic neutrophils and macrophages."}, "[2]": {"test_system": "human neutrophils", "assay": "Neutrophil chemotaxis, Transwell assay", "type": "cell-based", "conditions": "no inhibitor, read-out: concentration of chemoattractant necessary to support half-maximal migration", "procedure": "It is known that distinct signal transduction pathways are utilized by host-derived versus bacteria-produced chemoattractants [Heit, J. Cell Biol., 159:91-102 (2002)]. To determine whether specific chemotactic agents preferentially rely on PI3Kδ in order to promote directed cell migration, the effect of inhibiting PI3Kδ on the ability of neutrophils to undergo chemotaxis was examined using a Transwell™ assay system.\nNeutrophil chemotaxis experiments were conducted as described [Roth et al., J. Immunol. Methods, 188:97-116 (1995)]. Briefly, purified human neutrophils were incubated with DMSO (0.3% v/v) or an inhibitor in accordance with the invention reconstituted in DMSO (0.3%) for 20 minutes at room temperature. Cells were added to bare filter inserts (Transwell™ 5 μm pore size; Corning Costar, Cambridge, Mass.), that were placed into wells containing chemoattractants or control medium of a Ultra low 24-well cluster plate, and incubated for 1 hour at 37° C. in a 5% CO2 humidified environment. The number of neutrophils that migrated into the bottom well was determined by FACScan (Becton Dickinson, San Jose, Calif.). Results were expressed as percent neutrophil migration relative to the control (medium without inhibitor).\nDose response curves were generated to determine the concentrations of each chemoattractant, both host and bacterial-derived, necessary to support half-maximal migration. […] Methods, 137:37-46 (1991)]."}, "[3]": {"test_system": "neutrophils", "assay": "Superoxide production by activated neutrophils (WST-1)", "type": "cell-based", "conditions": "no inhibitor; read-out: agonist concentration representing half-maximal production of superoxide anions"}, "[4]": {"test_system": "neutrophils", "assay": "Neutrophil elastase release (exocytosis) assay", "type": "cell-based", "conditions": "no inhibitor; read-out: agonist concentration representing half-maximal release of elastase", "experimental": "Microtiter assays for the detection of elastase released from purified neutrophils (1.1×10^5 per well in PBS) were performed in the absence or presence of an inhibitor in accordance with the invention or LY294002 on fibrinogen-coated plates [Mulligan, et al., Proc. Natl. Acad. Sci. U.S.A., 90:11523-11527 (1993)]. […] The samples were centrifuged and 90 μl of the supernatant was transferred to another plate containing 10 μl of methoxysuccinyl-alanylalanylprolylvalyl-p-nitroanilide (10 mM, Sigma). Absorbance at 410 nm was measured at one hour as described above. Results are expressed as the percentage elastase activity relative to the control (medium without inhibitor)."}}, "note": "“Also recorded” adds a separate entry of the source."}
{"molecule": "C[C@@H]1C[C@H]2[C@@H]3CCC4=CC(=O)C=C[C@]4(C)[C@@]3(F)[C@@H](O)C[C@]2(C)[C@@]1(O)C(=O)CO", "note": "[dexamethasone]", "values": [{"measurement": "Log colony count/gm spleen tissue in dexamethasone group (2 mg/kg)", "setting": "[1]; Clearance Experiment 1, 2 mg/kg BID PO", "value": "count, >5 log colony count/gm spleen tis"}, {"measurement": "Log colony count/gm spleen tissue in dexamethasone group (2 mg/kg)", "setting": "[1]; Clearance Experiment 2, 2 mg/kg", "value": "hours, >10 log colony count/gm spleen tis"}, {"measurement": "lethality / condition of animals at 72 hours", "setting": "[1]; second experiment, dexamethasone 2 mg/kg", "value": "lethality was observed; also recorded: Moribund at 72"}]}
{"molecule": "CCCCC/C=C\\C[C@@H](O)/C=C/C=C/C=C\\[C@@H](O)CCCC(=O)O", "note": "[LTB4, leukotriene B4]", "values": [{"measurement": "EC50", "setting": "[2]", "value": 0.25, "unit": "nM"}, {"measurement": "EC50", "setting": "[3]", "value": 2, "unit": "nM"}, {"measurement": "EC50", "setting": "[4]", "value": 2, "unit": "nM"}]}
{"molecule": "interleukin 8 [IL-8]", "values": [{"measurement": "EC50", "setting": "[2]", "value": 0.35, "unit": "nM"}]}
{"molecule": "B1", "values": [{"measurement": "EC50", "setting": "[2]", "value": 0.37, "unit": "nM"}]}
